Experimental data reported in paper PMC10534422, “Divergence in Glyphosate Susceptibility between Steinchisma laxum Populations Involves a Pro106Ser Mutation” (Plants, 2023).
Where two headings read alike, the source gives them in different places.

Key:
[1] = tested on: T1, EPSPS (5-enolpyruvylshikimate-3-phosphate synthase); experiment: EPSPS activity by phosphate release (EnzChek Phosphate Assay), leaf extract; assay type: biochemical, Steinchisma laxum; conditions: S population; glyphosate 0-1000 µM; read-out: I50
T1 construct: native enzyme extracted from leaf tissue, not purified to homogeneity, activity per total soluble protein

[2] = tested on: T1, EPSPS (5-enolpyruvylshikimate-3-phosphate synthase); experiment: as above; assay type: biochemical, Steinchisma laxum; conditions: R population (Pro106Ser found in R plants); glyphosate 0-1000 µM; stated gain; read-out: I50

O=C(O)CNCP(=O)(O)O [glyphosate, N-(phosphonomethyl) glycine] gave an IC50 [1] of 0.98 µM and an IC50 [2] of 14.7 µM.
